Earlier results, collected in patent publication US20250161335A1, “Drug and Method for Nucleoside (Acid) Drug Therapy of Limiting Chronic Hepatitis B” (Shanghai Hep Pharmaceutical Co., Ltd., priority 2022, published 2025).

System: HBV
Conditions: patients treated with nucleoside (acid) medicine

SMILES: C[C@H](Cn1cnc2c(N)ncnc21)OCP(=O)(O)O [tenofovir]
- inhibition rate on viral DNA: about 70%
